We go through 3 molecules from US7566717B2, “Substituted heterocyclic compounds” (Gilead Sciences, Inc., priority 2003, dated 2009).

In the assay the test system is Rat heart mitochondria (palmitoyl CoA oxidation). As to the kind of experiment: Mitochondrial assay: palmitoyl CoA oxidation. The conditions noted are these: at 100 μM of test compound, 1-C14 palmitoyl CoA oxidation, 15 min at 30° C. Format: biochemical. How it is done: Rat heart mitochondria were isolated by the method of Nedergard and Cannon (Methods in Enzymol. 55, 3, 1979).
Palmitoyl CoA oxidation—The Palmityl CoA oxidation was carried out in a total volume of 100 micro liters containing the following agents: 110 mM KCl, 33 mM Tris buffer at pH 8, 2 mM KPi, 2 mM MgCl2, 0.1 mM EDTA, 14.7 microM defatted BSA, 0.5 mM malic acid, 13 mM carnitine, 1 mM ADP, 52 micrograms of mitochondrial protein, and 16 microM 1-C14 palmitoyl CoA (Sp. Activity 60 mCi/mmole; 20 microCi/ml, using 5 microliters per assay). The compounds of this invention were added in a DMSO solution at the following concentrations: 100 micro molar, 30 micro molar, and 3 micro molar. In each assay, a DMSO control was used. After 15 min at 30° C., the enzymatic reaction was centrifuged (20,000 g for 1 min), and 70 microliters of the supernatant was added to an activated reverse phase silicic acid column (approximately 0.5 ml of silicic acid). The column was eluted with 2 ml of water, and 0.5 ml of the eluent was used for scintillation counting to determine the amount of C^14 trapped as C^14 bicarbonate ion.
Usually Inhibition stands for the drop in the measured response relative to a control, in per cent. Read a high Inhibition as strong suppression. As for `Cc1cccc(C)c1NC(=O)CN1CCN(CC(O)CC(=O)Nc2ccccc2F)CC1` (stereo not drawn) [4-(4-{[N-(2,6-dimethylphenyl)carbamoyl]methyl}piperazinyl)-3-hydroxy-N-(2-fluorophenyl)butanamide], the Inhibition stood at 36%.
Molecule `Cc1cccc(C)c1NC(=O)CN1CCN(CC(O)CNC(=O)c2ccccc2F)CC1` (stereo not drawn) [N-(2,6-dimethylphenyl)-2-(4-{3-[(2-fluorophenyl)carbonylamino]-2-hydroxypropyl}piperazinyl)acetamide] registered an Inhibition of 24%.
To `Cc1cccc(C)c1NC(=O)CN1CCN(CC(O)CC2CCCCC2)CC1` (stereo not drawn) [N-(2,6-dimethylphenyl)-2-[4-(3-cyclohexyl-2-hydroxypropyl)piperazinyl]acetamide] belongs 8%.
